{"source": "patent US10092589B2", "about": "“Anti-tumor agent containing anti-tumor platinum complex, and anti-tumor effect enhancer” (Taiho Pharmaceutical Company Limited, priority 2014, dated 2018)", "key": {"[1]": {"experiment": "Carboplatin tolerability in mice with no cancer (Reference Example 3)", "type": "in vivo, BALB/cA Jcl-nu mice", "settings": "tail vein, Day 1", "description": "To BALB/cA Jcl-nu mice with no cancer (5 mice in each group), carboplatin (CBDCA) was administered at 50, 70, 100, 140, or 200 mg/kg/day through the tail vein on Day 1. In the groups treated with the doses of 140 mg/kg/day or more, strong body weight reductions of 20% or more and death cases were observed. The recommended dose of carboplatin for mice was thus 100 mg/kg/day."}, "[2]": {"system": "human lung cancer cell line (Lu-134)", "experiment": "Lu-134 xenograft, FTD·TPI combination drug and carboplatin (Example 2)", "type": "in vivo", "settings": "Day 29, tail vein Day 1 and Day 8", "description": "(§1) As an index of the anti-tumor effect, the TVs on Days 5, 8, 11, 15, 19, 22, 26, and 29 were calculated in each group. In accordance with the following equation, the relative tumor volume (RTV) to that on Day 0 was calculated and compared with the RTV of the untreated group (control).\n(§2) The tumor growth inhibition rate (IR) on Day 29 on the basis of RTV values was calculated in accordance with the following equation. IR(%)=[1−(mean RTV value of treated group)/(mean RTV value of control group)]×100\nIn a similar manner to that in Example 1, to BALB/cA Jcl-nu mice to which a human lung cancer cell line (Lu-134) had been transplanted, the FTD⋅TPI combination drug or carboplatin alone, or a combination of the two was administered, and enhancement of the anti-tumor effect was examined.\n(§3) The FTD⋅TPI combination drug (a mixture of FTD and TPI at a molar ratio of 1:0.5) was prepared for administration at doses of 75 and 150 mg/kg/day in terms of FTD. Carboplatin (Paraplatin inj., Bristol-Myers) was prepared for administration at doses of 50 and 100 mg/kg/day. The FTD⋅TPI combination drug was orally administered on Days 1 to 14 consecutively, and carboplatin was administered through the tail vein on Day 1 and Day 8. In the combination administration groups, the doses and administration schedules of the FTD⋅TPI combination drug and carboplatin were the same as those of the corresponding monotherapy groups. The TV and body weight of each group were measured on Days 4, 8, 11, 15, 19, 22, 26, and 29, and the anti-tumor effect and side effects were evaluated."}, "[3]": {"experiment": "Cisplatin tolerability (body weight) in KM20C-transplanted mice (Reference Example 2)", "type": "in vivo, BALB/cA Jcl-nu mice", "description": "To BALB/cA Jcl-nu mice (8 mice in each group) to which a human colon cancer cell line KM20C had been transplanted, cisplatin was administered through the tail vein on Day 1 and Day 8. At a dose of 7 mg/kg/day, body weight reduction was 20% or less, and this dose was feasible. Accordingly, the recommended dose of cisplatin (CDDP) for mice was 7 mg/kg/day."}, "[4]": {"system": "human lung cancer cell line (Lu-134)", "experiment": "Lu-134 xenograft, FTD·TPI combination drug and cisplatin (Example 1)", "type": "in vivo", "settings": "Day 29, tail vein Day 1 and Day 8", "description": "A human lung cancer cell line (Lu-134) was transplanted to the right chest of 5 to 6-week-old BALB/cA Jcl-nu mice. After the tumor transplantation, the long diameter (mm) and the short diameter (mm) of the tumor were measured, and the tumor volume (TV) was calculated.\nThe FTD⋅TPI combination drug (a mixture of FTD and TPI at a molar ratio of 1:0.5) was prepared for administration at doses of 75 and 150 mg/kg/day in terms of FTD. Cisplatin (Randa inj., Nippon Kayaku Co., Ltd) was prepared for administration at doses of 3.5 and 7 mg/kg/day. The FTD⋅TPI combination drug was orally administered on Days 1 to 14 consecutively, and cisplatin was administered through the tail vein on Day 1 and Day 8. In the combination administration groups, the doses and administration schedules of the FTD⋅TPI combination drug and cisplatin were the same as those of the corresponding monotherapy groups.\nas §1\nTV(mm^3)=(long diameter×short diameter^2)/2 RTV=(TV on Day 29)/(TV on Day 0)\nas §2\nTo evaluate body weight reduction as an index of side effects, body weights were measured in each group on each measurement day."}, "[5]": {"experiment": "Oxaliplatin tolerability in mice with no cancer (Reference Example 4)", "type": "in vivo, BALB/cA Jcl-nu mice", "settings": "tail vein, Day 1 and Day 8", "description": "To BALB/cA Jcl-nu mice with no cancer (4 mice in each group), oxaliplatin (l-OHP) was administered at 10, 12, 15, or 22.5 mg/kg/day through the tail vein on Day 1 and Day 8. In the groups treated with the doses of 15 mg/kg/day or more, strong body weight reductions of 20% or more were observed. The recommended dose of oxaliplatin for mice was thus 12 mg/kg/day."}, "[6]": {"system": "human colon cancer cell strain (KM20C)", "experiment": "KM20C xenograft, FTD·TPI combination drug and oxaliplatin (Example 3-1)", "type": "in vivo", "settings": "Day 15, tail vein Day 1 and Day 8", "description": "as §1\nIR(%)=[1−(mean RTV value of treated group)/(mean RTV value of control group)]×100\nIn a similar manner to that in Example 1, to BALB/cA Jcl-nu mice to which a human colon cancer cell strain (KM20C) had been transplanted, the FTD⋅TPI combination drug or oxaliplatin alone, or a combination of the two was administered, and enhancement of the anti-tumor effect was examined.\nas §3, with “FTD. Oxaliplatin (Eloxatin, Sanofi-Aventis)” for “FTD. Carboplatin (Paraplatin inj., Bristol-Myers)”, “of 6” for “of 50”, “and 12” for “and 100”, “and oxaliplatin” for “and carboplatin”, “4, 7, 10, and” for “4, 8, 11,”, “15,” for “15, 19, 22, 26, and 29,”"}, "[7]": {"system": "human colon cancer cell strain (SW48)", "experiment": "SW48 xenograft, FTD·TPI combination drug and oxaliplatin (Example 3-2)", "type": "in vivo", "settings": "tail vein Day 1 and Day 8; for IR (tumor growth inhibition rate) / RTV (mean ± SD): Day 29", "description": "In a similar manner to that in Example 1, to BALB/cA Jcl-nu mice to which a human colon cancer cell strain (SW48) had been transplanted, the FTD⋅TPI combination drug or oxaliplatin alone, or a combination of the two was administered, and enhancement of the anti-tumor effect was examined.\n(§4) The FTD⋅TPI combination drug (a mixture of FTD and TPI at a molar ratio of 1:0.5) was prepared for administration at a dose of 150 mg/kg/day in terms of FTD. Oxaliplatin (Eloxatin, Sanofi-Aventis) was prepared for administration at doses of 7 and 12 mg/kg/day. The FTD⋅TPI combination drug was orally administered on Days 1 to 14 consecutively, and oxaliplatin was administered through the tail vein on Day 1 and Day 8. In the combination administration groups, the doses and administration schedules of the FTD⋅TPI combination drug and oxaliplatin were the same as those of the corresponding monotherapy groups. The TV and body weight of each group were measured on Days 3, 7, 11, 15, 18, 22, 25, and 29, and the anti-tumor effect and side effects were evaluated.\nThe number of days that elapsed until the tumor volume reached 5 times that on Day 0 (RTV5) was determined, and the growth delay effect was evaluated (Cancer Chemother Pharmacol 57: 709-718, 2006; Int J Radiat Oncol Biol Phys 86 (3): 469-76, 2013)."}, "[8]": {"system": "human gastric cancer cell line (MKN74)", "experiment": "MKN74 xenograft, FTD·TPI combination drug and oxaliplatin (Example 3-3)", "type": "in vivo", "settings": "tail vein Day 1 and Day 8; for IR (tumor growth inhibition rate) / RTV (mean ± SD): Day 29", "description": "(§5) In a similar manner to that in Example 1, to BALB/cA Jcl-nu mice to which a human gastric cancer cell line (MKN74) was transplanted, the FTD⋅TPI combination drug or oxaliplatin alone, or a combination of the two was administered, and enhancement of the anti-tumor effect was examined.\nas §4\n(§6) The number of days that elapsed until the tumor volume reached 5 times that on Day 0 (RTV5) was determined, and the growth delay effect was evaluated."}, "[9]": {"system": "human gastric cancer cell line (MKN74/5-FU), 5-FU resistant", "experiment": "MKN74/5-FU xenograft, FTD·TPI combination drug and oxaliplatin (Example 3-4)", "type": "in vivo", "settings": "tail vein Day 1 and Day 8; for IR (tumor growth inhibition rate) / RTV (mean ± SD): Day 29", "description": "as §5, with “(MKN74/5-FU) that is a 5-FU resistant cell line had been” for “(MKN74) was”\nas §4, §6"}}, "note": "Marks after values point to notes of the source that are not given here.", "data": [{"smiles": "N.N.O=C([O-])C1(C(=O)[O-])CCC1.[Pt+2]", "note": "[Carboplatin (CBDCA), cis-diammine (1,1-cyclobutanedicarboxylato)-platinum (II)]", "values": [{"measurement": "body weight reductions", "setting": "[1]; doses of 140 mg/kg/day or more", "value": "≥ 20", "unit": "%"}, {"measurement": "death", "setting": "[1]; doses of 140 mg/kg/day or more", "value": "death cases"}, {"measurement": "recommended dose for mice", "setting": "[1]", "value": 100, "unit": "mg/kg/day"}, {"measurement": "IR (tumor growth inhibition rate)", "setting": "[2]; 50 mg/kg/day", "value": 25.3, "unit": "%"}, {"measurement": "RTV (mean ± SD)", "setting": "[2]; 50 mg/kg/day", "value": "26.86 ± 2.44"}, {"measurement": "IR (tumor growth inhibition rate)", "setting": "[2]; 100 mg/kg/day", "value": 57.2, "unit": "%"}, {"measurement": "RTV (mean ± SD)", "setting": "[2]; 100 mg/kg/day", "value": "15.40 ± 4.38"}]}, {"smiles": "N.N.[Cl][Pt][Cl]", "note": "[Cisplatin (CDDP), (SP-4-2)-diamminedichloroplatinum]", "values": [{"measurement": "body weight reduction", "setting": "[3]; 7 mg/kg/day, tail vein Day 1 and Day 8", "value": "≤ 20", "unit": "%"}, {"measurement": "recommended dose for mice", "setting": "[3]; tail vein, Day 1 and Day 8", "value": 7, "unit": "mg/kg/day"}, {"measurement": "IR (tumor growth inhibition rate)", "setting": "[4]; 3.5 mg/kg/day", "value": 21.0, "unit": "%"}, {"measurement": "RTV (mean ± SD)", "setting": "[4]; 3.5 mg/kg/day", "value": "29.12 ± 2.79"}, {"measurement": "IR (tumor growth inhibition rate)", "setting": "[4]; 7.0 mg/kg/day", "value": 49.6, "unit": "%"}, {"measurement": "RTV (mean ± SD)", "setting": "[4]; 7.0 mg/kg/day", "value": "18.56 ± 4.64"}]}, {"smiles": "O=C1[O][Pt]2([NH][C@@H]3CCCC[C@H]3[NH]2)[O]C1=O", "note": "[Oxaliplatin (l-OHP), [(1R,2R)-cyclohexane-1,2-diamine](ethanedioato-O,O′)platinum(II)]", "values": [{"measurement": "body weight reductions", "setting": "[5]; doses of 15 mg/kg/day or more", "value": "≥ 20", "unit": "%"}, {"measurement": "recommended dose for mice", "setting": "[5]", "value": 12, "unit": "mg/kg/day"}, {"measurement": "IR (tumor growth inhibition rate)", "setting": "[6]; 6 mg/kg/day", "value": 36.4, "unit": "%"}, {"measurement": "RTV (mean ± SD)", "setting": "[6]; 6 mg/kg/day", "value": "6.99 ± 0.32"}, {"measurement": "IR (tumor growth inhibition rate)", "setting": "[6]; 12 mg/kg/day", "value": 55.0, "unit": "%"}, {"measurement": "RTV (mean ± SD)", "setting": "[6]; 12 mg/kg/day", "value": "4.94 ± 0.53"}, {"measurement": "RTV5 (the period, RTV reaches 5)", "setting": "[7]; 7 mg/kg/day", "value": "8.9 ± 0.4", "unit": "days"}, {"measurement": "RTV5 (the period, RTV reaches 5)", "setting": "[7]; 12 mg/kg/day", "value": "10.0 ± 0.8^$ days"}, {"measurement": "IR (tumor growth inhibition rate)", "setting": "[7]; 7 mg/kg/day", "value": 22.1, "unit": "%"}, {"measurement": "RTV (mean ± SD)", "setting": "[7]; 7 mg/kg/day", "value": "47.63 ± 4.33"}, {"measurement": "IR (tumor growth inhibition rate)", "setting": "[7]; 12 mg/kg/day", "value": 36.7, "unit": "%"}, {"measurement": "RTV (mean ± SD)", "setting": "[7]; 12 mg/kg/day", "value": "38.72 ± 3.69*^,#"}, {"measurement": "RTV5 (the period, RTV reaches 5)", "setting": "[8]; 7 mg/kg/day", "value": "15.8 ± 0.6^$ days"}, {"measurement": "RTV5 (the period, RTV reaches 5)", "setting": "[8]; 12 mg/kg/day", "value": "18.5 ± 0.8^$ days"}, {"measurement": "IR (tumor growth inhibition rate)", "setting": "[8]; 7 mg/kg/day", "value": 20.7, "unit": "%"}, {"measurement": "RTV (mean ± SD)", "setting": "[8]; 7 mg/kg/day", "value": "12.67 ± 0.74"}, {"measurement": "IR (tumor growth inhibition rate)", "setting": "[8]; 12 mg/kg/day", "value": 35.8, "unit": "%"}, {"measurement": "RTV (mean ± SD)", "setting": "[8]; 12 mg/kg/day", "value": "10.25 ± 0.87"}, {"measurement": "RTV5 (the period, RTV reaches 5)", "setting": "[9]; 7 mg/kg/day", "value": "18.6 ± 1.4^$ days"}, {"measurement": "RTV5 (the period, RTV reaches 5)", "setting": "[9]; 12 mg/kg/day", "value": "20.1 ± 1.3^$ days"}, {"measurement": "IR (tumor growth inhibition rate)", "setting": "[9]; 7 mg/kg/day", "value": 33.7, "unit": "%"}, {"measurement": "RTV (mean ± SD)", "setting": "[9]; 7 mg/kg/day", "value": "11.23 ± 1.60"}, {"measurement": "IR (tumor growth inhibition rate)", "setting": "[9]; 12 mg/kg/day", "value": 40.5, "unit": "%"}, {"measurement": "RTV (mean ± SD)", "setting": "[9]; 12 mg/kg/day", "value": "10.08 ± 1.77"}]}]}
